Like-named read-outs stand apart in the source and are kept apart here.
Key:
[1] = test system: velvetleaf (Abutilon theophrasti MEDIC.); assay: Foliar treatment pot test, visual growth inhibition rate, velvetleaf (AT); type: in vivo
Excerpt: (§1) When the herbicidal activity in a case where two active ingredients are combined, is larger than the simple sum of the respective herbicidal activities of the two active ingredients (the expected activity), it is called a synergistic effect. The activity expected by the combination of two active ingredients can be calculated as follows (Colby S. R., “Weed”, vol. 15, p. 20-22, 1967). E=α+β−(α×β÷100) where
(§2) Upland field soil was put into a 1/1,000,000 hectare pot, and seeds of various plants (barnyardgrass (Echinochloa crus-qalli L.), crabgrass (Digitaria sanguinalis L.), giant foxtail (Setaria faberi Herrm.), velvetleaf (Abutilon theophrasti MEDIC.) and prickly sida (Sida spinosa L.)) were sown. When the respective plants reached predetermined leaf stage, herbicidal compositions in predetermined amounts were diluted with water in an amount corresponding to 300 L/ha and applied for foliar treatment by a small sprayer.
(§3) Further, in accordance with the above Colby's formula, the growth inhibition rate (calculated value) was calculated. In Tables, with respect to the compound Q, Compound Nos. in Table 1 are described, and with respect to other herbicidal compounds, common names are described. Further, in Tables, barnyardgrass is represented by “EC”, crabgrass by “DS”, giant foxtail by “SF”, velvetleaf by “AT”, and prickly sida by “SS”.

[2] = test system: crabgrass (Digitaria sanguinalis L.); assay: Foliar treatment pot test, visual growth inhibition rate, crabgrass (DS); type: in vivo
Excerpt: as §1, §2, §3

[3] = Digitaria sanguinalis, foliar, 552 h, 4.0-5.1 leaf stage, 23 DAT, read-out: Growth inhibition rate (%) of DS Measured value
[4] = Abutilon theophrasti, foliar, 552 h, 3.0-3.5 leaf stage, 23 DAT, read-out: Growth inhibition rate (%) of AT Measured value

O=C(O)COc1ccc(Cl)cc1Cl [2,4-D]
Growth inhibition rate (%) of AT Measured value ([1]; 4.2-4.3 leaf stage, 20 DAT, 25 g/ha): 45%

CCc1cccc(CC)c1N(COC)C(=O)CCl [Alachlor, alachlor]
inhibition at 300 g/ha ([2]; Digitaria sanguinalis, foliar, 504 h, 5.0-5.5 leaf stage, 21 DAT, read-out: Growth inhibition rate (%) of DS Measured value): 10%
inhibition at 300 g/ha ([1]; Abutilon theophrasti, foliar, 504 h, 3.8-4.4 leaf stage, 21 DAT, read-out: Growth inhibition rate (%) of AT Measured value): 0%

CC(C)N1C(=O)c2ccccc2NS1(=O)=O [Bentazone-sodium, bentazone-sodium]
inhibition at 200 g/ha ([2]; Digitaria sanguinalis, foliar, 528 h, 4.0-5.0 leaf stage, 22 DAT, 200 g/ha, read-out: Growth inhibition rate (%) of DS Measured value): 0%
inhibition at 200 g/ha ([2]; Digitaria sanguinalis, foliar, 552 h, 4.0-5.1 leaf stage, 23 DAT, 200 g/ha, read-out: Growth inhibition rate (%) of DS Measured value): 0%
inhibition at 100 g/ha ([1]; Abutilon theophrasti, foliar, 528 h, 4.1-4.5 leaf stage, 22 DAT, 100 g/ha, read-out: Growth inhibition rate (%) of AT Measured value): 0%
inhibition at 200 g/ha ([1]; Abutilon theophrasti, foliar, 552 h, 3.0-3.5 leaf stage, 23 DAT, 200 g/ha, read-out: Growth inhibition rate (%) of AT Measured value): 30%

CCOC(=O)C(Cl)Cc1cc(-n2nc(C)n(C(F)F)c2=O)c(F)cc1Cl (stereo not shown) [Carfentrazone-ethyl, carfentrazone-ethyl]
inhibition at 15 g/ha ([2]; Digitaria sanguinalis, foliar, 336 h, read-out: Growth inhibition rate (%) of DS Measured value, 4.0-5.0 leaf stage, 14 DAT, 15 g/ha): 5%
inhibition at 15 g/ha ([2]; Digitaria sanguinalis, foliar, 384 h, read-out: Growth inhibition rate (%) of DS Measured value, 4.0-5.0 leaf stage, 16 DAT, 15 g/ha): 0%
inhibition at 15 g/ha ([1]; Abutilon theophrasti, foliar, 336 h, read-out: Growth inhibition rate (%) of AT Measured value, 3.0-4.0 leaf stage, 14 DAT, 15 g/ha): 98%
inhibition at 7 g/ha ([1]; Abutilon theophrasti, foliar, 504 h, read-out: Growth inhibition rate (%) of AT Measured value, 3.0-3.5 leaf stage, 21 DAT, 7 g/ha): 99%

O=C(O)c1nc(Cl)ccc1Cl [Clopyralid, clopyralid]
inhibition at 300 g/ha ([2]; Digitaria sanguinalis, foliar, 528 h, 4.0-5.0 leaf stage, 22 DAT, read-out: Growth inhibition rate (%) of DS Measured value): 0%
inhibition at 300 g/ha [2, 3]: 0%
inhibition at 300 g/ha ([1]; Abutilon theophrasti, foliar, 528 h, 4.1-4.5 leaf stage, 22 DAT, read-out: Growth inhibition rate (%) of AT Measured value): 40%
inhibition at 300 g/ha [1, 4]: 35%

CC(C)N(C(=O)COc1nnc(C(F)(F)F)s1)c1ccc(F)cc1 [Flufenacet]
inhibition at 200 g/ha ([2]; Digitaria sanguinalis, foliar, 480 h, 5.0-5.2 leaf stage, 20 DAT, 200 g/ha, read-out: Growth inhibition rate (%) of DS Measured value): 0%
inhibition at 300 g/ha [2, 3]: 0%
inhibition at 300 g/ha [1, 4]: 0%

CP(=O)(O)CCC(N)C(=O)O (stereo not shown) [Glufosinate-ammonium, glufosinate-ammonium]
inhibition at 100 g/ha ([2]; Digitaria sanguinalis, foliar, 528 h, read-out: Growth inhibition rate (%) of DS Measured value, 4.0-5.0 leaf stage, 22 DAT, 100 g/ha): 0%
inhibition at 200 g/ha ([1]; Abutilon theophrasti, foliar, 528 h, read-out: Growth inhibition rate (%) of AT Measured value, 4.1-4.5 leaf stage, 22 DAT, 200 g/ha): 10%
inhibition at 200 g/ha ([1]; Abutilon theophrasti, foliar, 576 h, read-out: Growth inhibition rate (%) of AT Measured value, 3.2-4.1 leaf stage, 24 DAT, 200 g/ha): 30%

N.O=C(O)CNCP(=O)(O)O [Glyphosate-ammonium, glyphosate-ammonium]
Growth inhibition rate (%) of DS Measured value ([2]; 5.0-5.5 leaf stage, 21 DAT, 100 g/ha): 10%
Growth inhibition rate (%) of AT Measured value ([1]; 3.5-4.3 leaf stage, 14 DAT, 100 g/ha): 30%
Growth inhibition rate (%) of AT Measured value ([1]; 3.5-4.3 leaf stage, 21 DAT, 200 g/ha): 15%

O=C(O)CNCP(=O)([O-])O.[K+] [Glyphosate-potassium]
Growth inhibition rate (%) of DS Measured value ([2]; 4.0-4.2 leaf stage, 20 DAT, 62.5 g/ha): 0%
Growth inhibition rate (%) of DS Measured value ([2]; 4.0-4.2 leaf stage, 20 DAT, 125 g/ha): 5%
Growth inhibition rate (%) of DS Measured value ([2]; 4.0-4.2 leaf stage, 20 DAT, 250 g/ha): 20%

COC(=O)c1c(Cl)nn(C)c1S(=O)(=O)NC(=O)Nc1nc(OC)cc(OC)n1 [Halosulfuron-methyl]
inhibition at 20 g/ha ([2]; Digitaria sanguinalis, foliar, 336 h, read-out: Growth inhibition rate (%) of DS Measured value, 5.0-5.5 leaf stage, 14 DAT, 20 g/ha): 0%

CON(C)C(=O)Nc1ccc(Cl)c(Cl)c1 [Linuron, linuron]
inhibition at 250 g/ha ([2]; Digitaria sanguinalis, foliar, 336 h, 5.0-5.5 leaf stage, 14 DAT, 250 g/ha, read-out: Growth inhibition rate (%) of DS Measured value): 30%
inhibition at 250 g/ha ([1]; Abutilon theophrasti, foliar, 336 h, 3.5-4.3 leaf stage, 14 DAT, read-out: Growth inhibition rate (%) of AT Measured value): 85%
inhibition at 250 g/ha ([1]; Abutilon theophrasti, foliar, 576 h, 3.2-4.1 leaf stage, 24 DAT, read-out: Growth inhibition rate (%) of AT Measured value): 40%

CCOC(=O)OC(C)Oc1c(C(=O)c2ccc(S(C)(=O)=O)c(OCCOC)c2C)cnn1C (stereo not shown) [NO. 2]
Growth inhibition rate (%) of AT Measured value ([1]; 4.0-4.3 leaf stage, 22 DAT, 3.75 g/ha): 0%

CCC(CC)Nc1c([N+](=O)[O-])cc(C)c(C)c1[N+](=O)[O-] [Pendimethalin, pendimethalin]
inhibition at 62.5 g/ha ([2]; Digitaria sanguinalis, foliar, 480 h, 4.5-5.2 leaf stage, 20 DAT, 62.5 g/ha, read-out: Growth inhibition rate (%) of DS Measured value): 0%
inhibition at 125 g/ha ([2]; Digitaria sanguinalis, foliar, 480 h, 4.5-5.2 leaf stage, 20 DAT, 125 g/ha, read-out: Growth inhibition rate (%) of DS Measured value): 0%
inhibition at 250 g/ha ([2]; Digitaria sanguinalis, foliar, 480 h, 4.5-5.2 leaf stage, 20 DAT, 250 g/ha, read-out: Growth inhibition rate (%) of DS Measured value): 0%
inhibition at 100 g/ha ([1]; Abutilon theophrasti, foliar, 312 h, 3.3-4.2 leaf stage, 13 DAT, 100 g/ha, read-out: Growth inhibition rate (%) of AT Measured value): 25%
inhibition at 125 g/ha ([1]; Abutilon theophrasti, foliar, 480 h, 4.2-4.3 leaf stage, 20 DAT, 125 g/ha, read-out: Growth inhibition rate (%) of AT Measured value): 20%
inhibition at 250 g/ha ([1]; Abutilon theophrasti, foliar, 480 h, 4.2-4.3 leaf stage, 20 DAT, read-out: Growth inhibition rate (%) of AT Measured value): 38%

CCOCCN(C(=O)CCl)C(=C(C)C)c1ccccc1 [Pethoxamid, pethoxamid]
Growth inhibition rate (%) of DS Measured value ([2]; 3.6-3.8 leaf stage, 20 DAT, 100 g/ha): 0%
Growth inhibition rate (%) of DS Measured value ([2]; 3.6-3.8 leaf stage, 20 DAT, 200 g/ha): 0%
Growth inhibition rate (%) of DS Measured value ([2]; 3.6-3.8 leaf stage, 20 DAT, 400 g/ha): 0%
Growth inhibition rate (%) of DS Measured value ([2]; 4.4-5.0 leaf stage, 13 DAT, 200 g/ha): 0%
Growth inhibition rate (%) of AT Measured value ([1]; 3.3-4.2 leaf stage, 13 DAT, 200 g/ha): 0%

CCc1cc(C)cc(CC)c1-c1c(OC(=O)C(C)(C)C)n2n(c1=O)CCOCC2 [Pinoxaden]
inhibition at 25 g/ha ([2]; Digitaria sanguinalis, foliar, 504 h, 4.0-5.1 leaf stage, 21 DAT, 25 g/ha, read-out: Growth inhibition rate (%) of DS Measured value): 70%
inhibition at 50 g/ha ([2]; Digitaria sanguinalis, foliar, 504 h, 4.0-5.1 leaf stage, 21 DAT, 50 g/ha, read-out: Growth inhibition rate (%) of DS Measured value): 90%
inhibition at 100 g/ha ([2]; Digitaria sanguinalis, foliar, 504 h, 4.0-5.1 leaf stage, 21 DAT, 100 g/ha, read-out: Growth inhibition rate (%) of DS Measured value): 70%
inhibition at 25 g/ha ([1]; Abutilon theophrasti, foliar, 504 h, AT 4.0-4.3 leaf stage, 21 DAT, active ingredient 25 g/ha, read-out: Growth inhibition rate (%) of AT Measured value): 0%
inhibition at 50 g/ha ([1]; Abutilon theophrasti, foliar, 504 h, AT 4.0-4.3 leaf stage, 21 DAT, active ingredient 50 g/ha, read-out: Growth inhibition rate (%) of AT Measured value): 0%
inhibition at 100 g/ha ([1]; Abutilon theophrasti, foliar, 504 h, AT 4.0-4.3 leaf stage, 21 DAT, active ingredient 100 g/ha, read-out: Growth inhibition rate (%) of AT Measured value): 0%

CS(=O)(=O)c1ccc(C(=O)C2C(=O)CCCC2=O)c(Cl)c1 [sulcotrione]
inhibition at 25 g/ha ([1]; Abutilon theophrasti, foliar, 480 h, read-out: Growth inhibition rate (%) of AT Measured value, 4.0-4.2 leaf stage, 20 DAT, 25 g/ha): 40%
inhibition at 50 g/ha ([1]; Abutilon theophrasti, foliar, 480 h, read-out: Growth inhibition rate (%) of AT Measured value, 4.0-4.2 leaf stage, 20 DAT, 50 g/ha): 60%
inhibition at 100 g/ha ([1]; Abutilon theophrasti, foliar, 480 h, read-out: Growth inhibition rate (%) of AT Measured value, 4.0-4.2 leaf stage, 20 DAT, 100 g/ha): 95%

Reference: patent US8492310B2, “Herbicidal compositions containing benzoylpyrazole compounds” (priority 2008, dated 2013)
